This data set in a line: Solubility in toluene. The class given is physicochemical. Particulars: solvent toluene. The text has this:
As described below, an aromatic hydrocarbon is preferred as a solvent contained in a composition for charge-transporting material. Toluene is a typical aromatic hydrocarbon and is used as an index of the solubility of the organic compound (charge-transporting material) in the present invention.
In the case of `O=c1n(-c2cccc(-n3c4ccccc4c4ccccc43)c2)c2ccccc2n1-c1cccc(-n2c3ccccc3c3ccccc32)c1` [Target Compound 4], the “dissolved in toluene in an amount of” value was no less than 3 percent by weight.
To `O=c1n(-c2ccc(N(c3ccccc3)c3ccc(-c4ccccc4)cc3)cc2)c2ccccc2n1-c1ccc(N(c2ccccc2)c2ccc(-c3ccccc3)cc2)cc1` [Target Compound 5] belongs no less than 5.0 percent by weight; to `O=c1n(-c2cccc(-c3ccccc3)c2)c2ccccc2n1-c1cccc(-c2ccccc2)c1` [Target Compound 6], no less than 5.0 percent by weight; to `O=c1n(-c2cccc(-n3c4ccccc4c4ccncc43)c2)c2ccccc2n1-c1cccc(-n2c3ccccc3c3ccncc32)c1` [Target Compound 12], no less than 3 percent by weight.
Regarding `O=c1n(-c2cccc(-n3c4ccccc4c4ccccc43)c2)c2cccnc2n1-c1cccc(-n2c3ccccc3c3ccccc32)c1` [Target Compound 16], the “dissolved in toluene in an amount of” value is on record as no less than 3 percent by weight.

For the origin of these results see patent US8022617B2, “Organic compound, charge-transporting material, composition for charge-transporting material and organic electroluminescent device” (Mitsubishi Chemical Corporation, priority 2005, dated 2011).
